Reference: patent publication US6156765A, “Method of treating and preventing vasospasm” (The United States of America as represented by the …, priority 1996, dated 2000)
“And” between values parts separate entries of the source, which are not always exact repeats. Equal values may be shown once.

How the values were obtained:
[1] = Peters et al. 1966; Oubidar et al. 1994; cited from earlier work
[2] = ferrous iron; cited from earlier work
[3] = ferric iron; cited from earlier work
[4] = Harada et al. 1992; Vollmer et al. 1991; cited from earlier work
[5] = test system: right middle cerebral artery (R MCA); assay: Arteriographic vasospasm of the R MCA in primate model of SAH (autologous clot placement); format: in vivo, cynomologous macaques; settings: for arteriographic vasospasm: 70 mg/kg/day
Procedure: (§1) Eleven (11) cynomologous macaques (8 male and 3 female, weight 3.0-5.9 kg.) were randomly divided into 2 groups. Craniotomy was performed in all animals and autologous clot was placed around the right middle cerebral artery (R MCA) after the arachnoid membrane was removed, as described elsewhere [Pluta et al., J. Neurosurg. 77:740-748 (1992)]. Six animals (3 male and 3 female) received IV infusion of 2,2'-dipyridyl (70 mg/kg/day) continuously for 14 days. Between postoperative days 7 and 10, cerebral arteriography was used to assess the presence and degree of vasospasm using methods previously described [Pluta et al., J. Neurosurg. 77:740-748 (1992)]. The five control animals (all male) received IV infusion of saline in a volume equal to that delivered in the experimental group (10-15 cc/kg/day). Two pilot animals were also used in an initial phase in order to establish an effective experimental dose. One received 44 mg/kg/day of IV 2,2'-dipyridyl, and the other received up to 100 mg/kg/8 hrs of IV 2,2'-dipyridyl.
Each monkey underwent arteriographic study of the R MCA 3 to 21 days before surgery and 7 to 10 days after clot placement [Pluta et al., J. Neurosurg. 77:740-748 (1992)]. Under general anesthesia (ketamine 10 mg/kg and isoflurane) and sterile conditions, a cutdown of the right femoral artery was performed and a No. 3 French catheter was advanced to the right ICA. Fluoroscopy (C-arm; OEC) and intravenous contrast (2 cc Conray, 60%; Malinkrodt Medical, St. Louis, Mo.), were used to acquire subtraction images of the vessel. A radiopaque ruler was placed in the field to allow standardized measurements.
(§2) All studies were performed in the standard anteroposterior projection (AP). During the arteriography, the end-tidal CO2 was maintained at 40 mm Hg and core body temperature was maintained at 37 degrees Celsius using a heating pad. Blood pressures were monitored during all procedures.
Placement of Subarachnoid Clot and Indwelling Intravenous Catheter
As in previous studies [Pluta et al., J. Neurosurg. 77:740-748 (1992)], each animal was anesthetized as follows. Each monkey was given an injection of ketamine (10 mg/kg IM), atropine sulfate (0.05 mg/kg IM), and sodium thiopental (25 mg/kg IV). The animals were intubated and ventilated with isoflurane (0.5%-1.0%) and 100% O2 and paralyzed with pancuronium (0.1 mg/kg). Each animal was hyperventilated to an end-tidal CO2 of 30 to 40 mm Hg.
Each animal was placed in the supine position for a right frontotemporal craniotomy. Under sterile conditions, the dura was opened and the R MCA was identified in the sylvian fissure. Using the operating microscope, the arachnoid membrane over the R MCA was dissected from the trifurcation to the origin of the vessel at the ICA bifurcation. 8-10 cc of autologous clotted arterial blood obtained by an assistant via a left femoral cutdown was then placed along the length of the exposed vessel. The dura was then closed in a watertight fashion, followed by the muscle and skin layers.
Each animal was then repositioned for placement of a 6.6 French Broviac catheter in the left femoral vein. […] The distal end of the catheter was passed subcutaneously to the midscapular region and secured. Each monkey was fitted in a jacket containing an infusion pump (Disetronic Medical Systems, Plymouth, Minn.) which delivered 70 mg/kg (60 cc/24 hours) of the 2,2'-dipyridyl solution. Each monkey was sedated daily with ketamine (10 mg/kg IM) to change the delivery pump. […]

[6] = Blood pressure monitoring; format: in vivo, cynomologous macaques; settings: all animals except pilot animal receiving 100 mg/kg/8 hours; 14-day treatment
Procedure: as §1, §2

[7] = test system: liver, kidney, brain and other tissues; assay: Gross and microscopic anatomic pathology; format: in vivo, cynomologous macaques; design: key to Toxicity Liver: L+: swelling of hepatocytes; L++: degeneration; L+++: lipidosis (#73, #105), regeneration (885N); settings: IV 70 mg/kg/day for 14 days
Procedure: as §1
Tissues were studied for gross and microscopic anatomic pathology by Dr. Michael Eckhaus and staff (Veterinary Resources Program, National Center for Research Resources, NIH, Bethesda, Md.).

[8] = Clinical observations for signs of drug toxicity; format: in vivo, cynomologous macaques
Procedure: as §1
The monkeys were observed daily for changes in weight, feeding, behavior, alertness, and neurologic function. The monkeys also were observed closely for signs of drug toxicity, including tremors, emesis, vomiting, diarrhea, seizures, and CNS depression [Sigma MSDS, CAS #366-18-7, 1994].
Pilot studies were done to determine the experimental dosage. […] The second pilot animal received up to 100 mg/kg/8 hours. […] These two pilot animals were then excluded from further data analysis.

transferrin = assay: Percent transferrin saturation in treated animals; format: in vivo, cynomologous macaques
Procedure: as §1
Plasma samples were collected on days 0 and 7 of each experiment and were analyzed by Maryland Medical Pathology (Rockville, Md.) for serum iron and percent transferrin saturation. Due to the molecular complexity of iron chelators, direct assays for these drugs are not available.
Data are reported as means of measurements by three individuals ±SEM and compared using an unpaired […] test. Significance was accepted at p<0.05.

[9] = Serum iron concentration in treated animals; format: in vivo, cynomologous macaques; settings: drug-treated animals, 70 mg/kg/day
Procedure: as §1
Plasma samples were collected on days 0 and 7 of each experiment and were analyzed by Maryland Medical Pathology (Rockville, Md.) for serum iron and percent transferrin saturation. Due to the molecular complexity of iron chelators, direct assays for these drugs are not available. […]

[10] = background statement; cited from earlier work
[11] = NO versus oxygen; cited from earlier work
[12] = Afshar et al. 1995; cited from earlier work
[13] = pilot animal, IV 44 mg/kg/24 hours for 14 days

CC(=O)N(O)CCCCCNC(=O)CCC(=O)N(O)CCCCCNC(=O)CCC(=O)N(O)CCCCCN [deferoxamine]
CSF levels before toxic systemic effects appear [1]: adequate CSF levels cannot be achieved before toxic systemic effects appear | penetrability of the blood-brain barrier [1]: limited penetrability | deferoxamine-iron stability constant for Fe^+2 [2]: 10^2 to 10^14 | deferoxamine-iron stability constant for Fe^+3 [3]: 10^31 | success in potential therapies for vasospasm [4]: limited success

c1ccc(-c2ccccn2)nc1 [2,2'-dipyridyl]
arteriographic vasospasm ([5]; IV 70 mg/kg/day for 14 days, n=6, postoperative day 7-10): no arteriographic vasospasm | arteriographic vasospasm ([5]; IV 70 mg/kg/day for 14 days, n=6, postoperative day 7-10, listed as DP): no spasm | mean AP area of the proximal portion of the MCA, of the baseline area ([5]; IV 70 mg/kg/day for 14 days, n=6, postoperative day 7-10, mean ± SEM, p<0.0001, control 44.8%±4.6%): 3.9%±4.3 | vasospasm (reduction of AP area of R MCA) [5, 13]: 20% | vasospasm grade [5, 13]: mild (reduction in the AP area of the defined segment of the MCA of 12-25%) | blood pressures during preoperative and postoperative arteriography [6]: stable and equivalent blood pressures | brain changes (substantia nigra, cerebellum Purkinje cells) [7]: No brain changes | gross pathology: brain, liver, kidney, lymph nodes, spleen, intestine, gonads, or skeletal or cardiac muscle [7]: no toxicity | kidney pathology (collecting tubules), animals #2 and #5 [7]: Multifocal casts | kidney pathology, animals #1, #3, #4, or #6 [7]: No sign of nephrotoxicity | liver pathology, animals #1, #3, #4, and #5 [7]: Hepato-cellular swelling | liver pathology, animals #2 and #6 [7]: Hepatocellular degeneration | liver pathology, overall [7]: Mild changes | microscopic pathology: brain (substantia nigra and cerebellar Purkinje cells), lymph nodes, spleen, intestine, gonads, or skeletal or cardiac muscle [7]: no toxicity | Toxicity Liver ([7]; individual monkey, 70 mg/kg/day): L+ and L++ | toxicity at the effective dose ([8]; 70 mg/kg/day): mild | resolution of tremors and leg weakness, animal #1 ([8]; IV 70 mg/kg/day): ≤ 4 days | resolution of tremors and leg weakness, animal #2 ([8]; IV 70 mg/kg/day): did not resolve in animal #2 by day 14 | resolution of tremors and leg weakness, animal #4 ([8]; IV 70 mg/kg/day): ≤ 6 days | toxic symptoms ([8]; animals #1, #2, and #4, IV 70 mg/kg/day for 14 days): mild tremors of the upper and lower extremities, and leg weakness | toxic symptoms ([8]; animals #3, #5, and #6, IV 70 mg/kg/day for 14 days): no toxic symptoms | weight loss, changes in feeding habits, or alertness ([8]; control or treated animals, IV 70 mg/kg/day for 14 days): None | signs of toxicity [8, 13]: no sign of toxicity | symptoms of toxicity ([8]; pilot animal, IV up to 100 mg/kg/8 hours, sacrificed on fourth day of drug delivery): symptoms of toxicity (tremors, emesis, and diarrhea) | percent saturation of transferrin, change in treated animals (transferrin; 70 mg/kg/day): decreased | TransFe sat % Day 0 (transferrin; individual monkey, day 0, IV 70 mg/kg/day, 70 mg/kg/day): 40% and 32% and 31% and 33% | TransFe sat % Day 7 (transferrin; individual monkey, day 7, IV 70 mg/kg/day, 70 mg/kg/day): 2% and 0% and -1% and -2% and -4% | TransFe sat % Day 0, Mean (transferrin; mean of table, day 0, IV 70 mg/kg/day): 34 ± 4% | TransFe sat % Day 7, Mean (transferrin; mean of table, day 7, p < 0.0001, IV 70 mg/kg/day): -1.2 ± 2% | serum iron, day 7 as compared to day 0 [9]: markedly reduced

oxyhemoglobin: the clinically-relevant vasospastic agent
vasospastic activity [10]: vasospastic

Hemoglobin: Hemoglobin has a strong affinity for NO
binding to NO more readily than to oxygen [11]: 1,500 fold

nitric oxide [NO]
effect of intracarotid infusion on vasospasm [12]: reversal of vasospasm
